Assay results taken from patent US11591365B2, “BCL9 peptides and variants thereof” (WntRx Pharmaceuticals Inc., priority 2017, dated 2023).
*1 amine or outer side, *2 acyl side, *3 side chain or, on linkers, in order; H or OH if unused. Where a SMILES comes first, the peptide text is derived from it. Bridges are numbered along the chain shown (N, C = ends). [ ]: non-standard residue; d: D form. 2Nal = N[C@@H](Cc1ccc2ccccc2c1)C(=O)O; d2Nal = N[C@H](Cc1ccc2ccccc2c1)C(=O)O; X1 = NC(=O)CCCCN(CC(=O)[*:2])[*:1]; hArg = N=C(N)NCCCC[C@H](N)C(=O)O; Cha = N[C@@H](CC1CCCCC1)C(=O)O; Cba = N[C@@H](CC1CCC1)C(=O)O; S5 = C=CCCC[C@](C)(N)C(=O)O

test system: Colo320DM; test: Colo320DM cell viability; type: cell-based, human
Description: In some embodiments, a polypeptide described herein inhibits binding of BLC9 to β-catenin when assessed in a cell-viability assay. In some embodiments, the cell-viability assay is a CellTiterGlo luminescent assay, wherein the viability of cells is quantitatively measured. Various cell lines, transformed cell lines or primary cells derived from a healthy subject or subject suffering from a disease can be used in this assay.

Row | SMILES | IC50 [µM]
1 | CC[C@H](C)[C@@H]1NC(=O)[C@@](C)(NC(=O)[C@H](CCCNC(=N)N)NC(=O)[C@H](CC(C)C)NC(=O)[C@@H](NC(=O)CN(CCCCC(N)=O)C(=O)[C@H](CC(C)C)NC(=O)[C@H](CO)NC(=O)[C@H](CCCNC(=N)N)NC(=O)[C@H](CCC(N)=O)NC(=O)[C@H](CCCNC(=N)N)NC(=O)[C@H](Cc2c[nH]cn2)NC(C)=O)[C@@H](C)O)CCCC=CCCC[C@@](C)(C(=O)N[C@@H](CC2CCC2)C(=O)N[C@@H](Cc2ccc3ccccc3c2)C(N)=O)NC(=O)[C@H](CCCNC(=N)N)NC(=O)[C@H](CCC(N)=O)NC1=O [SEQ ID NO: 169, HRQRSL(peptoid-Q)TLRXIQRX(CBA)(2-Nal)] (Ac-HRQRSL[X1]TLR[S5]IQR[S5][Cba][2Nal]-NH2; staple 11-15) | 4.98
2 | CC[C@H](C)[C@@H]1NC(=O)[C@@](C)(NC(=O)[C@H](CCCNC(=N)N)NC(=O)[C@H](CC(C)C)NC(=O)[C@@H](NC(=O)[C@H](CCC(N)=O)NC(=O)[C@H](CC(C)C)NC(=O)[C@H](CO)NC(=O)[C@H](CCCNC(=N)N)NC(=O)[C@H](CCC(=O)O)NC(=O)[C@H](CCCNC(=N)N)NC(=O)[C@H](Cc2c[nH]cn2)NC(C)=O)[C@@H](C)O)CCCC=CCCC[C@@](C)(C(=O)N[C@@H](CC2CCC2)C(=O)N[C@@H](Cc2ccc3ccccc3c2)C(N)=O)NC(=O)[C@H](C)NC(=O)[C@H](CCC(N)=O)NC1=O [SEQ ID NO: 29, HRERSLQTLRXIQAX(CBA)(2-Nal)] (Ac-HRERSLQTLR[S5]IQA[S5][Cba][2Nal]-NH2; staple 11-15) | 2.68
3 | CC[C@H](C)[C@@H]1NC(=O)[C@@](C)(NC(=O)[C@H](CCCCNC(=N)N)NC(=O)[C@H](CC(C)C)NC(=O)[C@@H](NC(=O)[C@H](CCC(N)=O)NC(=O)[C@H](CC(C)C)NC(=O)[C@H](CO)NC(=O)[C@H](CCCNC(=N)N)NC(=O)[C@H](CCC(N)=O)NC(=O)[C@H](CCCNC(=N)N)NC(=O)[C@H](Cc2c[nH]cn2)NC(C)=O)[C@@H](C)O)CCCC=CCCC[C@@](C)(C(=O)N[C@@H](CC2CCC2)C(=O)N[C@@H](Cc2ccc3ccccc3c2)C(N)=O)NC(=O)[C@H](CCCNC(=N)N)NC(=O)[C@H](CCC(N)=O)NC1=O [SEQ ID NO: 170, HRQRSLQTL(homoR)XIQRX(CBA)(2-Nal)] (Ac-HRQRSLQTL[hArg][S5]IQR[S5][Cba][2Nal]-NH2; staple 11-15) | 5.17
4 | CC[C@H](C)[C@@H]1NC(=O)[C@@](C)(NC(=O)[C@H](CCCNC(=N)N)NC(=O)[C@H](CC(C)C)NC(=O)[C@@H](NC(=O)[C@H](CCC(N)=O)NC(=O)[C@H](CC(C)C)NC(=O)[C@H](CO)NC(=O)[C@H](CCCNC(=N)N)NC(=O)[C@H](CCC(N)=O)NC(=O)[C@H](CCCNC(=N)N)N(C)C(=O)[C@H](Cc2c[nH]cn2)NC(C)=O)[C@@H](C)O)CCCC=CCCC[C@@](C)(C(=O)N[C@@H](CC2CCC2)C(=O)N[C@@H](Cc2ccc3ccccc3c2)C(N)=O)NC(=O)[C@H](CCCNC(=N)N)NC(=O)[C@H](CCC(N)=O)NC1=O (single isomer, unassigned) [SEQ ID NO: 158, H(R-Me)QRSLQTLRXIQRX(CBA)(2-Nal)] | 3.32
5 | CC[C@H](C)[C@@H]1NC(=O)[C@@](C)(NC(=O)[C@H](CCCNC(=N)N)NC(=O)[C@H](CC(C)C)NC(=O)[C@@H](NC(=O)[C@H](CCC(N)=O)NC(=O)[C@H](CC(C)C)NC(=O)[C@H](CO)NC(=O)[C@H](CCCNC(=N)N)NC(=O)[C@H](CCC(N)=O)NC(=O)[C@H](CCCNC(=N)N)NC(=O)[C@H](Cc2c[nH]cn2)NC(C)=O)[C@@H](C)O)CCCC=CCCC[C@@](C)(C(=O)N[C@@H](CC2CCCCC2)C(=O)N[C@H](Cc2ccc3ccccc3c2)C(N)=O)NC(=O)[C@H](CCCNC(=N)N)NC(=O)[C@H](CCC(N)=O)NC1=O [SEQ ID NO: 188, HRQRSLQTLRXIQRX(Cha)(2DNal)] (Ac-HRQRSLQTLR[S5]IQR[S5][Cha][d2Nal]-NH2; staple 11-15) | 3.28
